Values joined by “and” are separate entries in the source; they are usually repeats but may differ in a detail not shown here. Identical values can stand only once.
How the values were obtained:
[1] = system: brain function development of infants; experiment: Spearman correlation of NAD-related substance concentration in 1-month breast milk with ASQ-3 developmental scores at 24 months; assay type: in vivo, human; settings: for Correlation with concentration, r (Spearman): ASQ-3 at 24 months, 1-month breast milk; for Correlation of concentration in breast milk with developmental scores (in words): p<0.05
Experimental: (§1) The method was specifically as follows.
Concentrations of NAD-related substances in 1-month breast milk ingested by 150 infants of 1 to 6 months old, who were fully breastfed, were determined by LC-MS/MS.
Development of the infants was assessed at the age of 24 months using ASQ (registered trademark)-3 (Japanese version of ASQ (registered trademark)-3 infant developmental screening questionnaires, Igaku Shoin, 2021). The relationship between the amount of each NAD-related substance ingested by the infants and their development was evaluated by using Spearman's rank-order correlation coefficient.

[2] = system: brain function development of infants; experiment: Between-group comparison (Mann-Whitney U) of ASQ-3 developmental scores, high NMN vs low NMN breast milk; assay type: in vivo, human
Experimental: as §1
By using the data on the contents of NMN in breast milk and the developmental scores of the infants shown in Method 1, the subject infants were divided into two groups according to the concentration of NMN in breast milk, and the groups were compared according to Mann-Whitney's U-test. In this study, the boundary concentration of the two groups was set to be 1.922 μg/mL (mean NMN concentration in 1-month breast milk−1×standard deviation) or 3.089 μg/mL (mean NMN concentration in 1-month breast milk). That is, the group comparison was performed between two groups of NMN concentrations in the consumed breast milk of […] (high NMN group) and <1.922 μg/mL (low NMN group), or two groups of the same of 3.089 μg/mL (high NMN group) and <3.089 μg/mL (low NMN group).

aged mice = settings: cited from earlier work
mouse = settings: aging; cited from earlier work
old rats = settings: each alone or in combination; cited from earlier work
[3] = system: mouse model of drug-induced depression; settings: cited from earlier work
piglets = settings: cited from earlier work
mice = settings: cited from earlier work

Compound	Correlation with concentration, r (Spearman) ([1]; Communication, 150 infants)	Correlation with concentration, r (Spearman) ([1]; Gross motor)	Correlation with concentration, r (Spearman) ([1]; Problem solving)	Correlation with concentration, r (Spearman) ([1]; Social-individual)	Correlation with concentration, r (Spearman) ([1]; Fine motor)	Learning and memory abilities (old rats)	further results
O=C(O)c1cccnc1 [NA, nicotinic acid]	0.025	0.095	0.147	0.154			Correlation of concentration in breast milk with developmental scores (in words) ([1]; gross motor): positive correlation
NC(=O)c1ccc[n+]([C@@H]2O[C@H](COP(=O)([O-])OP(=O)(O)OC[C@H]3O[C@@H](n4cnc5c(N)ncnc54)[C@H](O)[C@@H]3O)[C@@H](O)[C@H]2O)c1 [NAD, nicotinamide adenine dinucleotide]		0.077	0.056	0.048	0.025		
NC(=O)c1ccc[n+]([C@@H]2O[C@H](COP(=O)([O-])O)[C@@H](O)[C@H]2O)c1 [NMN, nicotinamide mononucleotide]	0.199	0.186	0.288	0.269 and 0.259	0.208	improves their learning and memory abilities	Correlation of concentration in breast milk with developmental scores (in words) ([1]; all five developmental areas at 24 months): significant positive correlation; Effectiveness in promoting brain development in infants among the NAD-related substances ([1]; in vivo): most effective; Correlation between amount in breast milk ingested from 1 to 6 months of age and development by ASQ-3 24-month (in words) ([1]; overall): high correlation; Development of the infants, high NMN group vs low NMN group ([2]; fine motor, boundary value 3.089 μg/mL, FIG. 2): significantly accelerated; NMN level in the composition at which infants' brain functions are significantly enhanced ([2]; in vivo): ≥ 1.922 µg/mL; Development of the infants, high NMN group vs low NMN group ([2]; personal-social, boundary value 1.922 μg/mL, FIG. 1): significantly accelerated; Development of the infants, high NMN group vs low NMN group ([2]; personal-social, boundary value 3.089 μg/mL, FIG. 2): significantly accelerated; Development of the infants, high NMN group vs low NMN group ([2]; problem solving, boundary value 3.089 μg/mL, FIG. 2): significantly accelerated; Neurovascular coupling (aged mice): may promote neurovascular coupling; Hypersensitive behaviors to fear and anxiety (mouse): may alleviate hypersensitive behaviors to fear and anxiety; Drug-induced depression-like symptoms [3]: improves drug-induced depression-like symptoms
NC(=O)c1ccc[n+]([C@@H]2O[C@H](CO)[C@@H](O)[C@H]2O)c1 [NR, nicotinamide riboside]	0.017	0.082		0.117	0.085		Correlation of concentration in breast milk with developmental scores (in words) ([1]; problem solving): positive correlation; Short-chain fatty acids in feces (piglets): increased levels; BDNF level in breast milk (mice; NR supplementation of mothers): twice as high; Fat and brain size of offspring at weaning (mice; mice raised by supplemented mothers): lower fat and larger brains; Milk secretion and production of BDNF (mice; mouse, in vivo): stimulates milk secretion
COc1ccc2[nH]cc(CCNC(C)=O)c2c1 [melatonin]						improves their learning and memory abilities	
